Where only a bound is given, the exact number is not on record here.

One may read the IC50 as the midpoint of a concentration-inhibition curve. A word on the melting point: it is the temperature, or range, at which the solid turns liquid.

In data set [1] the target is FPTase (farnesyl-protein transferase) with H-Ras as substrate for farnesylation (UniProt P29702+P49355). The data set is described as follows: in vitro FTase Inhibition Assay (H-Ras substrate). Type of data set: biochemical. The protocol: Enzyme assay: FPTase inhibition in vitro assay was performed according to James, G. L., Brown, M. S., and Goldstein, J. L., Methods in Enzymology, 1995, 255, 38-46; and Garcia, M. A., et al., J. Biol. Chem., 1993, 268,18415-18420.
Materials—Purified FPTase (Moomaw, J. F. and Casey, P. J., J. Biol. Chem., 1992, 267, 17438-17443), purified His6-Ras, inhibitor compounds at 10 mg/ml or 10 mM in 100% DMSO, ^3H-FPP (50,000 dpm/pmol) Amersham, TCA/SDS (6%/2%), TCA (6%), Glass fiber filters ([…]), vacuum manifold or 96 well filtration plates.
Methods—1. Dilute FPTase inhibitors from stock solutions to 2.5× in 2.5% DMSO, 10 mM DTT, 0.5% octyl-B-glucoside. 2. Solution #1 is added to FPTase reaction in a volume of […]. 3. Standard reaction mix, […], contains 50 mM Tris (7.5),[…], 3 mM MgCl2, 20 mM KCl, 5 mM DTT, 0.2% octyl-B-glucoside, 1% DMSO, […], 10 ng FPTase, and various concentrations of FPTase inhibitors. 4. Incubate for 30-90 min at 25° C. 5. Stop reactions with TCA/SDS (6%/2%), hold at 4° C. for 45-60 min. 6. Filter by manifold or 96 well plate, wash filter 3-5× with TCA (6%). 7. Add scintillant to filters, measure ^3H-FPP incorporation into Ras protein.
Analysis of Results—Percent inhibition by test compounds is determined by the following:
(cpm from precipitated Ras with test compounds)−(background cpm)×100=% inhibition.
(cpm from precipitated Ras without test compounds)−(background cpm)

For `Cc1ccc(S(=O)(=O)C2(Cc3ccc(OCCc4nc(-c5ccccc5)oc4C)cc3)SC(=O)NC2=O)cc1` (stereo not drawn) [Example 1, 5-(4-[2-(5-Methyl-2-phenyloxazol-4-yl)ethoxy]benzyl)-5-(4-methylbenzenesulfonyl)thiazolidine-2,4-dione], the melting point lay in the range of 202 to 204 °C. Moreover, half-maximal inhibition in data set [1] (IC50) was put at 2250 nM. For the molecule `Cc1ccc(S(=O)(=O)C2(Cc3ccc(Br)cc3F)SC(=O)NC2=O)cc1` (stereo not drawn) [Example 2, 5-(4-Bromo-2-fluorobenzyl)-5-(4-methylbenzenesulfonyl)thiazolidine-2,4-dione], the melting point was 236 to 237 °C. Besides, the IC50 in data set [1] worked out at 6500 nM. With `Cc1ccc(S(=O)(=O)C2(Cc3ccc(Cl)c(Cl)c3)SC(=O)NC2=O)cc1` (stereo not drawn) [Example 3, 5-(3,4-Dichlorobenzyl)-5-(4-methylbenzenesulfonyl)thiazolidine-2,4-dione], the melting point was in the range of 183 to 184 °C. Moreover, the “Activity* (% inhib. at 10 μM)” value in data set [1] is recorded as “(1%)”. The corresponding values for `O=C1NC(=O)C(Cc2ccc(Br)cc2F)(S(=O)(=O)c2ccc3ccccc3c2)S1` (stereo not drawn) [Example 4, 5-(4-Bromo-2-fluorobenzyl)-5-(naphthalene-2-sulfonyl)thiazolidine-2,4-dione] are 195 to 197 °C and “(1%)”. Turning to `Cc1oc(-c2ccccc2)nc1CCOc1ccc(CC2(S(=O)(=O)c3ccc4ccccc4c3)SC(=O)NC2=O)cc1` (stereo not drawn) [Example 5, 5-(4-[2-(5-Methyl-2-phenyloxazol-4-yl)ethoxy]benzyl)-5-(naphthalene-2-sulfonyl)thiazolidine-2,4-dione], the melting point was in the range of 133 to 136 °C. Also, the “Activity* (% inhib. at 10 μM)” value in data set [1] was “(−2%)”. For the molecule `COc1ccc(S(=O)(=O)C2(Cc3ccccc3)SC(=O)NC2=O)cc1` (stereo not drawn) [Example 6, 5-Benzyl-5-(4-methoxybenzenesulfonyl)thiazolidine-2,4-dione], the melting point was in the range of 146 to 152 °C. Moreover, the “Activity* (% inhib. at 10 μM)” value in data set [1] was “(21%)”. The molecule `COc1ccc(S(=O)(=O)C2(Cc3ccccc3)SC(=O)N(CC(=O)NO)C2=O)cc1` (stereo not drawn) [Example 7, 2-[5-Benzyl-5-(4-methoxybenzenesulfonyl)-2,4-dioxothiazolidin-3-yl]-N-hydroxyacetamide] registered an IC50 in data set [1] of 2500 nM. Still for that read-out and setting: in the case of `COc1ccc(C2(c3cccc(CC4(Sc5ccc(C)cc5)SC(=O)NC4=O)c3)OCCO2)cc1` (stereo not drawn) [Example 8, 5-(3-[2-(4-Methoxyphenyl)[1,3]dioxolan-2-yl]benzyl)-5-(4-methylbenzenesulfanyl)thiazolidine-2,4-dione] it was 1300 nM; in that of `COc1ccc(C2(c3cccc(CC4(S(=O)(=O)c5ccc(C)cc5)SC(=O)NC4=O)c3)OCCO2)cc1` (stereo not drawn) [Example 9, 5-(3-[2-(4-Methoxyphenyl)[1,3]dioxolan-2-yl]benzyl)-5-(4-methylbenzenesulfonyl)thiazolidine-2,4-dione], 1200 nM; in that of `COc1ccc(C(=O)c2cccc(CC3(S(=O)(=O)c4ccc(C)cc4)SC(=O)NC3=O)c2)cc1` (stereo not drawn) [Example 10, 5-(3-(4-methoxybenzoyl)benzyl)-5-(4-methylbenzenesulfonyl)thiazolidine-2,4-dione], 4250 nM.

The molecule `COc1ccc(C(=O)c2cccc(CC3(Sc4ccc(C)cc4)SC(=O)NC3=O)c2)cc1` (stereo not drawn) [Example 11, 5-(3-(4-methoxybenzoyl)benzyl)-5-(4-methylbenzenesulfanyl)thiazolidine-2,4-dione] returned an IC50 in data set [1] of 2500 nM.

The molecule `COc1ccc(C(O)c2cccc(CC3(Sc4ccc(C)cc4)SC(=O)NC3=O)c2)cc1` (stereo not drawn) [Example 12, 5-(3-[Hydroxy(4-methoxyphenyl)methyl]-benzyl)-5-(4-methylbenzenesulfanyl)thiazolidine-2,4-dione] yielded a half-maximal inhibitory concentration (IC50) in data set [1] of 3700 nM. `Cc1ccc(S(=O)(=O)C2(Cc3ccc(Br)cc3)SC(=O)NC2=O)cc1` (stereo not drawn) [Example 13]: the “Activity* (% inhib. at 10 μM)” value in data set [1] is given as “(28%)”. With `Cc1ccc(S(=O)(=O)C2(Cc3ccc(-c4ccccc4C#N)cc3)SC(=O)NC2=O)cc1` (stereo not drawn) [Example 14, 5-[2′-cyanobiphen-4-ylmethyl]-5-(4-methylbenzenesulfonyl)thiazolidine-2,4-dione], the IC50 in data set [1] was determined as 77 nM. On to `Cc1ccc(S(=O)(=O)C2(Cc3ccc(-c4ccccc4-c4nnn[nH]4)cc3)SC(=O)NC2=O)cc1` (stereo not drawn) [Example 15, 5-[2′-(1H-Tetrazol-5-yl)biphen-4-ylmethyl]-5-(4-methylbenzenesulfonyl)thiazolidine-2,4-dione], for which, in data set [1], the “Activity* (% inhib. at 10 μM)” value is “(4%)”. Turning to `COc1ccc(S(=O)(=O)C2(Cc3ccc(-c4ccccc4C#N)cc3)SC(=O)NC2=O)cc1` (stereo not drawn) [Example 16, 5-[2′-cyanobiphen-4-ylmethyl]-5-(4-methoxybenzenesulfonyl)thiazolidine-2,4-dione], half-maximal inhibition in data set [1] (IC50) was put at 350 nM.

For the molecule `COc1ccc(Cc2cccc(CC3(Sc4ccc(C)cc4)SC(=O)NC3=O)c2)cc1` (stereo not drawn) [Example 17, 5-[3-(4-Methoxybenzyl)benzyl]-5-(4-methylbenzenesulfanyl)thiazolidine-2,4-dione], the IC50 in data set [1] amounted to 2900 nM. In data set [1], `Cc1ccc(SC2(Cc3cccc(C4(c5cccs5)OCCO4)c3)SC(=O)NC2=O)cc1` (stereo not drawn) [Example 18, 5-[3-(2-Thiophen-2-yl[1,3]dioxolan-2-yl)benzyl]-5-(4-methylbenzenesulfanyl)thiazolidine-2,4-dione] showed an IC50 of 4500 nM.

Regarding `Cc1ccc(SC2(Cc3cccc(C(=O)c4cccs4)c3)SC(=O)NC2=O)cc1` (stereo not drawn) [Example 19, 5-[3-(Thiophene-2-carbonyl)benzyl]-5-(4-methylbenzenesulfanyl)thiazolidine-2,4-dione], the IC50 in data set [1] was 2800 nM. As for `COc1ccc(S(=O)(=O)C2(Cc3ccc(-c4ccccc4)cc3)SC(=O)NC2=O)cc1` (stereo not drawn) [Example 20, 5-Biphen-4-ylmethyl-5-(4-methoxybenzenesulfonyl)thiazolidine-2,4-dione], the melting point lay in the range of 119 to 122 °C. The molecule also showed an IC50 in data set [1] of 1700 nM.

Turning to `COc1ccc(S(=O)(=O)C2(Cc3ccc(-c4ccc(Cl)cc4)cc3)SC(=O)NC2=O)cc1` (stereo not drawn) [Example 21, 5-(4′-Chlorobiphen-4-ylmethyl)-5-(4-methoxybenzenesulfonyl)thiazolidine-2,4-dione], the melting point was 197 to 200 °C. This molecule also returned an IC50 in data set [1] of 1000 nM.

In turn, `COc1ccc(S(=O)(=O)C2(Cc3ccc(-c4cccc(C(F)(F)F)c4)cc3)SC(=O)NC2=O)cc1` (stereo not drawn) [Example 22, 5-(4-Methoxybenzenesulfonyl)-5-(3′-(trifluoromethyl)biphen-4-ylmethyl)thiazolidine-2,4-dione] gave an IC50 in data set [1] of 2500 nM.

Molecule `COc1ccc(S(=O)(=O)C2(Cc3ccc(-c4cc(C(F)(F)F)cc(C(F)(F)F)c4)cc3)SC(=O)NC2=O)cc1` (stereo not drawn) [Example 23, 5-(3′,5′-Bis(trifluoromethyl)biphen-4-ylmethyl)-5-(4-methoxybenzenesulfonyl)thiazolidine-2,4-dione] registered a melting point of 122 to 125 °C. For the same molecule, the IC50 in data set [1] is over 10000 nM. The corresponding values for `COc1ccc(S(=O)(=O)C2(Cc3ccc(-c4ccc(Cl)cc4Cl)cc3)SC(=O)NC2=O)cc1` (stereo not drawn) [Example 24, 5-(2′,4′-Dichlorobiphen-4-ylmethyl)-5-(4-methoxybenzenesulfonyl)thiazolidine-2,4-dione] are 104 to 107 °C and 740 nM.

As to `Cc1ccc(SC2(Cc3cccc(Oc4cccc(Cl)c4)c3)SC(=O)NC2=O)cc1` (stereo not drawn) [Example 25, 5-[3-(3-Chlorophenoxy)benzyl]-5-(4-methylbenzenesulfanyl)thiazolidine-2,4-dione], in data set [1], the IC50 stood at 3500 nM. Same read-out and setting: in the case of `Cc1ccc(S(=O)(=O)C2(Cc3cccc(C4(c5cccs5)OCCO4)c3)SC(=O)NC2=O)cc1` (stereo not drawn) [Example 26, 5-[3-(2-thiophen-2-yl[1,3]dioxolan-2-yl)benzyl]-5-(4-methylbenzenesulfonyl)thiazolidine-2,4-dione] it was 6000 nM.
